In patent US20040072775A1, “Enhancing the sensitivity of tumor cells to therapies” (priority 1994, published 2004):

Key:
Type in all cases: cell-based, human
T98G glioblastoma cells = assay: clonogenic assay after one hour cisplatin exposure, parental cells; conditions: clones counted 7 to 10 days later, read-out: concentration of cisplatin needed to achieve a 50% reduction in colony count
Protocol: 1). Cells. T98G glioblastoma cells (Mercer et al., “Negative growth regulation in a glioblastoma tumor cell line that conditionally expresses human wild-type p53.” (1990) Proc. Natl. Acad. Sci., USA, 87:6166-6170) were obtained from ATCC and cultured at 37° C. in 10% CO2 in Dulbecco's Modified Eagles Medium supplemented with 10% heat inactivated fetal bovine serum, gentamycin, nonessential amino acids, and sodium pyruvate. […] 5). Control parental T98G cells and T98 Gp53 cells which had been adapted 2 weeks to culture in the absence of the antibiotics G418 were plated in 24 well plates at about 2×10^4 cells per well. The next day they were exposed for one hour to varying concentrations of cisplatin (a chemotherapeutic agent) from 10 to 40 μM in increments of 10 μM. The cisplatin was removed after one hour and replaced with complete medium (DMEM+10% Fetal Bovine Serum) and cells were allowed to grow for 7 days. After 7 days, cells were counted or stained with crystal violet. In the latter case, absorbance at 540 nm is proportional to cell viability. For clonogenic assays, cells were replated following treatment in 6 well plates at 500-1000 cells per well. Clones were counted 7 to 10 days later by staining in 0.5% methylene blue, 70% ETOH. Colony counts from p53 transfectants and parental T98G glioblastoma cells were compared. […] Subsequent assays confirmed this increased sensitivity. […]

[1] = system: empty vector-transduced T98G cells; assay: clonogenic assay after one hour cisplatin exposure, empty vector-transduced cells; conditions: clones counted 7 to 10 days later, read-out: concentration of cisplatin needed to achieve a 50% reduction in colony count
T98 Gp53 cells = assay: clonogenic/growth assay after one hour cisplatin exposure, cells transduced with wild-type p53 gene
Protocol: 1). Cells. T98G glioblastoma cells (Mercer et al., “Negative growth regulation in a glioblastoma tumor cell line that conditionally expresses human wild-type p53.” (1990) Proc. Natl. Acad. Sci., USA, 87:6166-6170) were obtained from ATCC and cultured at 37° C. in 10% CO2 in Dulbecco's Modified Eagles Medium supplemented with 10% heat inactivated fetal bovine serum, gentamycin, nonessential amino acids, and sodium pyruvate.
2). Plasmids. A plasmid (pLp53RNL) containing the wild-type p53 gene and the neomycin (G418) resistance gene was used. The plasmid pLp53RNL was kindly provided by Dr. Martin Haas (University of California, San Diego), and has been previously described (Cheng et al., “Suppression of acute lymphoblastic leukemia by the human wild-type p53 gene,” (1992) Cancer Res., 53:222-226). This plasmid carries the retroviral sequence Lp53RNL in which wild-type p53 expression is driven from the Moloney murine leukemia virus (MoMLV) LTR. The neomycin resistance gene is driven from the Rous Sarcoma Virus (RSV) promoter.
3). Transfections. The plasmid was introduced into T98G cells using cationic liposomes. […]
5). […] After 7 days, cells were counted or stained with crystal violet. In the latter case, absorbance at 540 nm is proportional to cell viability. […] Clones were counted 7 to 10 days later by staining in 0.5% methylene blue, 70% ETOH. […]

N.N.[Cl][Pt][Cl] [cisplatin]
IC50 (T98G glioblastoma cells): ~30 µM
IC50 [1]: ~30 µM
IC50 (T98 Gp53 cells; cells transduced with wild-type p53 gene, one hour exposure, clones counted 7 to 10 days later, read-out: concentration of cisplatin needed to achieve a 50% reduction in colony count): 15 to 20 µM
sensitivity of T98 Gp53 cells to the effects of cisplatin compared with parental T98G cells (FIG. 1) (T98 Gp53 cells; cisplatin 10 to 40 μM, one hour): considerably more sensitive
